Test results reported in patent publication US7273880B2, “Selective NPY (Y5) antagonists” (H. Lunbeck A/S, priority 1999, dated 2007).
Where a name gives a salt, the structure may show the parent alone.

What was measured:
[1] = molecular target: T1, human Y5 receptor (hNPY-5) (Homo sapiens, UniProt Q15761); assay: Radioligand binding to membranes, cloned human Y5 receptor; details: cloned human NPY Y5 receptor, radioligand competition binding; Tables 1-3; read-out: Ki, nM hNPY-5
T1 construct: expressed in transfected cells; host or cells: mouse fibroblast LM(tk-) cells, e.g. L-hY5-7 (ATCC CRL-11995)
T1 sequence (Q15761 1-445): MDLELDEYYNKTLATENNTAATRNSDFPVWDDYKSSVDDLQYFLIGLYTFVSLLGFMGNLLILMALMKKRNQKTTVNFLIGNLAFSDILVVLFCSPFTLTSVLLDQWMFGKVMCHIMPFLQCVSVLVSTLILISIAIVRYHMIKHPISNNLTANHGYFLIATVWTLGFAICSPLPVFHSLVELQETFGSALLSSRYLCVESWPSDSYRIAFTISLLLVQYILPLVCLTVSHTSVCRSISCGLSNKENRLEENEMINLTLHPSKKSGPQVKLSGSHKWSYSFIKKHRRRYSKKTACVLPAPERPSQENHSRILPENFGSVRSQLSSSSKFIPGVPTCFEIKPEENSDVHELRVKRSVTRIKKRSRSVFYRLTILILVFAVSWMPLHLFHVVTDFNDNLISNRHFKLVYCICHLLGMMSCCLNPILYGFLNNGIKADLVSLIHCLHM
Experimental: Binding of the compounds of the present invention to human Y1, Y2, Y4, and Y5 receptors was evaluated using stably transfected 293 or LM(tk-) cells as described above. Stably transfected cell lines which may be used for binding assays include, for example, for the human Y1 receptor, 293-hY1-5 (deposited Jun. 4, 1996, under ATCC Accession No. CRL-12121), for the human Y2 receptor, 293-hY2-10 (deposited Jan. 27, 1994, under ATCC Accession No. CRL-11537), for the human Y4 receptor, L-hY4-3 (deposited Jan. 11, 1995, under ATCC Accession No. CRL-11779), and for human Y5 receptor, L-hY5-7 (deposited Nov. 15, 1995, under ATCC Accession No. CRL-11995). These cell lines were deposited with the American Type Culture Collection (ATCC), 10801 University Blvd., Manassas, Va. 20110-2209, U.S.A. under the provisions of the Budapest Treaty for the International Recognition of the Deposit of Microorganisms for the Purposes of Patent Procedure.
Membranes were harvested from COS-7 cells 48 hours after transient transfection. Adherent cells were washed twice in ice-cold phosphate buffered saline (138 mM NaCl, 8.1 mM Na2HPO4, 2.5 mM KCl, 1.2 mM KH2PO4, 0.9 mM CaCl2, 0.5 mM MgCl2, pH 7.4) and lysed by sonication in ice-cold sonication buffer (20 mM Tris-HCl, 5 mM EDTA, pH 7.7). Large particles and debris were cleared by low speed centrifugation (200×g, 5 min, 4° C.). Membranes were collected from the supernatant fraction by centrifugation (32,000×g, 18 min, 4° C.), washed with ice-cold hypotonic buffer, and collected again by centrifugation (32,000×g, 18 min, 4° C.). The final membrane pellet was resuspended by sonication into a small volume of ice-cold binding buffer (˜1 ml for every 5 plates: 10 mM NaCl, 20 mM HEPES, 0.22 mM KH2PO4, 1.26 mM CaCl2, 0.81 mM MgSO4, pH 7.4). Protein concentration was measured by the Bradford method (Bradford, 1976) using Bio-Rad Reagent, with bovine serum albumin as a standard. Membranes were held on ice for up to one hour and used fresh, or flash-frozen and stored in liquid nitrogen.
Membranes were prepared similarly from 293, LM(tk-), and NIH-3T3 cells. To prepare membranes from baculovirus infected cells, 2×10^7 Sf21 cells were grown in 150 mm tissue culture dishes and infected with a high-titer stock of hY5BB3. Cells were incubated for 2-4 days at 27° C., no CO2 before harvesting and membrane preparation as described above.
Membrane suspensions were diluted in binding buffer supplemented with 0.1% bovine serum albumin to yield an optimal membrane protein concentration so that ^125I-PYY (or alternative radioligand such as ^125I-NPY, ^125I-PYY3-36, or ^125I-[Leu^31Pro^34]PYY) bound by membranes in the assay was less than 10% of ^125I-PYY (or alternative radioligand) delivered to the sample (100,000 dpm/sample=0.08 nM for competition binding assays). ^125I-PYY (or alternative radioligand) and peptide competitors were also diluted to desired concentrations in supplemented binding buffer. Individual samples were then prepared in 96-well polypropylene microtiter plates by mixing 125I-PYY (25 μL) (or alternative radioligand), competing peptides or supplemented binding buffer (25 μL), and finally, membrane suspensions (200 μL). Samples were incubated in a 30° C. water bath with constant shaking for 120 min. Incubations were terminated by filtration over Whatman GF/C filters (pre-coated with 1% polyethyleneimine and air-dried before use), followed by washing with 5 mL of ice-cold binding buffer. Filter-trapped membranes were impregnated with MeltiLex solid scintillant (Wallac, Turku, Finland) and counted for ^125I in a Wallac Beta-Plate Reader. Alternatively, incubations were carried out in GF/C filter plates (pre-coated with 1% polyethyleneimine and air-dried before use), followed by vacuum filtration and three washes of 300 μL of ice-cold binding buffer. 50 μL of UltimaGold (Packard) scintillant were added and counted for ^125I in a Wallac MicroBeta Trilux. […]

| SMILES | melting point [°C] | Ki [1] [nM] |
| --- | --- | --- |
| O=S(=O)(NCCCCCNc1nc2c(s1)CCCc1ccc(F)cc1-2)c1ccccc1F (as salt: HCl) [Example 3, 1-Aza-9-fluoro-2-(5-(2-fluorophenyl)sulfonylamino)-pentylamino-4,5-dihydro-3-thia-benzo[e]azulene] | 55 to 57 |  |
| O=S(=O)(NC[C@H]1CC[C@H](Nc2nc3c(s2)CCCc2ccc(F)cc2-3)CC1)N1CCOCC1 [Example 76, trans-1-Aza-9-fluoro-4,5-dihydro-2-(4-(4-morpholinyl)-sulfonylaminomethyl)cyclohexylamino-3-thia-benzo[e]azulene] |  | 4.1 |
| COCCOC(=O)NC[C@H]1CC[C@H](Nc2nc3c(s2)CCCc2ccc(F)cc2-3)CC1 [Example 77, trans-1-Aza-9-fluoro-4,5-dihydro-2-(4-(2-methoxy)-ethoxy-carbonylaminomethyl)cyclohexylamino-3-thia-benzo[e]azulene] |  | 14.6 |
| COc1ccc2c(c1)CCCc1sc(N[C@H]3CC[C@H](CNS(=O)(=O)N4CCOCC4)CC3)nc1-2 [Example 78, trans-N2-(4-(1-Morpholinylsulfonylaminomethyl)-cyclohexyl-8-methoxy-5,6-dihydro-4H-benzo[6,7]-cyclohepta[d][1,3]thiazol-2-amine hydrochloride] |  | 6 |
| CC(=O)NC[C@H]1CC[C@H](Nc2nc3c(s2)CCCc2ccc(F)cc2-3)CC1 [Example 81, N1-({4-[(9-fluoro-5,6-dihydro-4H-benzo[6,7]-cyclohepta-[d][1,3]thiazol-2-yl)amino]cyclohexyl}-methyl)acetamide] |  | 62 |
| CCCN(C=O)C[C@H]1CC[C@H](Nc2nc3c(s2)CCCc2ccc(F)cc2-3)CC1 [Example 82, trans-1-Aza-9-fluoro-4,5-dihydro-2-(4-(N-propyl-formamido)-methyl)cyclohexylamino-3-thia-benzo[e]-azulene] |  | 11.9 |
| CC(C)N(C=O)C[C@H]1CC[C@H](Nc2nc3c(s2)CCCc2ccc(F)cc2-3)CC1 [Example 83, trans-1-Aza-9-fluoro-4,5-dihydro-2-(4-(N-isopropyl-formamido)methyl)cyclohexylamino-3-thia-benzo[e]-azulene] |  | 12 |
| COCC(=O)N[C@H]1CC[C@H](CNc2nc3c(s2)CCOc2ccccc2-3)CC1 [Example 84, N1-{4-[(4,5-dihydrobenzo[2,3]oxepino[4,5-d][1,3]thiazol-2-ylamino)methyl]cyclohexyl}-2-methoxyacetamide] |  | 40 |
| COCCN(C=O)[C@H]1CC[C@H](CNc2nc3c(s2)CCOc2ccccc2-3)CC1 [Example 86, N-{4-[(4,5-dihydrobenzo[2,3]oxepino[4,5-d][1,3]thiazol-2-ylamino)methyl]cyclohexyl}-N-(2-methoxyethyl)formamide] |  | 68 |
| CCN(C=O)[C@H]1CC[C@H](CNc2nc3c(s2)CCOc2ccccc2-3)CC1 [Example 87, trans-1-Aza-2-(4-(n-(ethyl) formamido)cyclohexyl)methyl-amino-4,5-dihydro-6-oxa-3-thia-benzo[e]azulene] |  | 86 |
| CCCN(C=O)[C@H]1CC[C@H](CNc2nc3c(s2)CCOc2ccccc2-3)CC1 [Example 88, N-{4-[(4,5-Dihydrobenzo[2,3]oxepino[4,5-d][1,3]-thiazol-2-ylamino)methyl]cyclohexyl}-N-propyl-formamide] |  | 36 |
| COCC(=O)NCc1ccc(Nc2nc3c(s2)CCCc2ccc(F)cc2-3)cc1 [Example 89, N1-{4-[(9-fluoro-5,6-dihydro-4H-benzo[6,7]cyclohepta-[d][1,3]thiazol-2-yl)amino]benzyl}-2-methoxyacetamide] |  | 9.2 |
| COc1ccccc1-c1csc(N[C@H]2CC[C@H](CNS(C)(=O)=O)CC2)n1 [Example 91, trans-4-(2-Methoxy)phenyl-2-(4-methylsulfonylamino-methyl)-cyclohexylamino-1,3-thiazole hydrochloride] |  | 12.3 |
| CCOC(=O)NC[C@H]1CC[C@H](Nc2nc(-c3ccccc3OC)cs2)CC1 [Example 92, trans-2-(4-Ethoxycarbonylaminomethyl)cyclohexylamino-4-(2-methoxy)phenylthiazole hydrogen chloride] |  | 912 |
| COc1cccc(-c2csc(N[C@H]3CC[C@H](CNS(C)(=O)=O)CC3)n2)c1 [Example 93, trans-4-(3-Methoxy)phenyl-2-(4-methylsulfonylamino-methyl)-cyclohexylaminothiazole] |  | 150 |
| CCOC(=O)NC[C@H]1CC[C@H](Nc2nc(-c3cccc(OC)c3)cs2)CC1 [Example 94, trans-2-(4-Ethoxycarbonylaminomethyl)cyclohexylamino-4-(3-methoxy)phenylthiazole hydrogen chloride] |  | 240 |
| CS(=O)(=O)NC[C@H]1CC[C@H](Nc2nc(-c3ccccc3O)cs2)CC1 [Example 95, trans-4-(2-Hydroxy)phenyl-2-(4-methylsulfonylamino-methyl)-cyclohexylaminothiazole] |  | 106 |
| COc1ccccc1-c1csc(N[C@H]2CC[C@H](CN(C=O)C(C)C)CC2)n1 [Example 96, trans-2-(4-(N-Isopropyl)formamidomethyl)cyclohexyl-amino-4-(2-methoxy)phenylthiazole hydrogen chloride] |  | 56 |
| COCCN(C=O)C[C@H]1CC[C@H](Nc2nc(-c3ccccc3OC)cs2)CC1 [Example 97] |  | 335 |
| COCCN(C=O)[C@H]1CC[C@H](CNc2nc(-c3ccccc3)cs2)CC1 [Example 98, trans-N-(2-Methoxyethyl)-N-(4-[(4-phenyl-1,3-thiazol-2-yl)amino]methylcyclohexyl)formamide] |  | 125 |
| CC(C)N(C=O)[C@H]1CC[C@H](CNc2nc(-c3ccccc3)cs2)CC1 [Example 99, trans-N-Isopropyl-N-(4-[(4-phenyl-1,3-thiazol-2-yl)amino]methylcyclohexyl)formamide] |  | 45 |
| CC(C)(C)OC(=O)NC[C@H]1CC[C@H](Nc2nc3c(s2)CCSc2ccccc2-3)CC1 [Example 100, tert-Butyl N-{[4-(4,5-Dihydrobenzo[2,3]thiepino[4,5-d][1,3]thiazol-2-ylamino)cyclohexyl]methyl}carbamate] |  | 24 |
| CCN(CC)S(=O)(=O)NCCCCCCNc1nc2c(s1)CCSc1ccccc1-2 [Example 101, N′-[6-(4,5-Dihydrobenzo[2,3]thiepino[4,5-d][1,3]thiazol-2-ylamino)hexyl]-N,N-diethylsulfamide] |  | 5.9 |
| CN(C)S(=O)(=O)NC[C@H]1CC[C@H](CNc2nc3c(s2)CCSc2ccc(F)cc2-3)CC1 [Example 106] |  | 2.6 |
